This is an account of results in article PMC6382819, “Design strategy for serine hydroxymethyltransferase probes based on retro-aldol-type reaction” (Nature Communications, 2019).

In general, Kd refers to the equilibrium constant for the complex coming apart. The Km is the concentration of substrate that gives half-maximal velocity.

The target of assay [1] is T1, hSHMT1 (Homo sapiens, UniProt P34896).
T1 construct: gene SHMT1
T1 sequence (P34896 2-483): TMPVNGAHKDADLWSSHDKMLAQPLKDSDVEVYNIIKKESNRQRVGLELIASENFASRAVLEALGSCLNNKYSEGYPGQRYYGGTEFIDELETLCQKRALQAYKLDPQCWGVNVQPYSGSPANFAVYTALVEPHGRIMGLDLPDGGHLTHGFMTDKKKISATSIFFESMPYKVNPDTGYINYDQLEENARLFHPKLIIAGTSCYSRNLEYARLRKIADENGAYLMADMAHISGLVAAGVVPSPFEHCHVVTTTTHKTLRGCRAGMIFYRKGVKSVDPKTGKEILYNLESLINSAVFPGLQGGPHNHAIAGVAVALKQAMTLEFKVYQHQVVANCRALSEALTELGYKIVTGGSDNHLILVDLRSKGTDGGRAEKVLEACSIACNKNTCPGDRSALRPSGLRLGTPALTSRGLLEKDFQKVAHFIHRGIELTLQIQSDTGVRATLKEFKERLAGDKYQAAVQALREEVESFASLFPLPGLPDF
Put plainly: ITC; also DSF thermal shift and HPLC Ser-Gly conversion inhibition (IC50 […]). It is filed as binding.

Assay [2] concerns the target T1, hSHMT1. In words: enzyme kinetics with recombinant hSHMT1 (retro-aldol turnover, fluorescence). It is filed as biochemical.
The target in assay [3] is T1, hSHMT1. Put plainly: enzyme kinetics with recombinant hSHMT1 (UV absorption; […] NMR turnover). It is filed as biochemical.

On to `O=C(O)CCC(=O)Nc1ccc(-c2ccnc(-c3ccc(NC(=O)CCC(=O)O)cc3)n2)cc1` [Hit 1], for which, at hSHMT1 [1], the Kd came out at 2 µM.

Regarding `CN(C)c1ccc2cc([C@H](O)[C@H](N)C(=O)O)ccc2c1` [compound 1, fluorescent probe 1], the Km on hSHMT1 [2] is 1810 ± 190 µM. `N[C@H](C(=O)O)[C@@H](O)c1ccc(F)cc1` [compound 2, 19F NMR probe 2]: at hSHMT1 [3], the Km came out at 2750 ± 270 µM.
